# Experimental data reported in article PMC11288027, “Exploring novel microbial metabolites and drugs for inhibiting Clostridioides difficile” (mSphere, 2024).
# Structures can show the parent of a compound that is named as a salt. Where two headings read alike, the source gives them in different places.
# Key:
# [1] = system: C. difficile clinical isolates; experiment: MIC against a panel of 20 C. difficile clinical isolates (broth microdilution); assay type: cell-based, Clostridioides difficile; settings: Clostridioides difficile; for MIC50: concentration that inhibited 50% of the 20 C. difficile clinical isolates, read-out: MIC50; for MIC: read-out: minimum inhibitory concentration (MIC); for MIC90: concentration that inhibited 90% of the 20 C. difficile clinical isolates, read-out: MIC90
# B. fragilis = experiment: MIC against human gut microbiota; assay type: cell-based, Bacteroides fragilis; settings: Bacteroides fragilis, anaerobic, read-out: minimum inhibitory concentration (MIC)
# B. dorei = experiment: MIC against human gut microbiota; assay type: cell-based, Bacteroides dorei; settings: Phocaeicola dorei; B. dorei HM- 719, BHIS broth, anaerobic; read-out: minimum inhibitory concentration (MIC)
# Bif. breve = experiment: MIC against human gut microbiota; assay type: cell-based, Bifidobacterium breve; settings: Bifidobacterium breve, ATCC15700; Bif. breve ATCC 15700, BHIS broth, anaerobic; read-out: minimum inhibitory concentration (MIC)
# Bif. angulatum = experiment: MIC against human gut microbiota; assay type: cell-based, Bifidobacterium angulatum; settings: Bifidobacterium angulatum; Bif. angulatum HM- 1189, BHIS broth, anaerobic; read-out: minimum inhibitory concentration (MIC)
# Bif. adolescentis = experiment: MIC against human gut microbiota; assay type: cell-based, Bifidobacterium adolescentis; settings: Bifidobacterium adolescentis; Bif. adolescentis HM- 633, BHIS broth, anaerobic; read-out: minimum inhibitory concentration (MIC)
# Bif. longum = experiment: MIC against human gut microbiota; assay type: cell-based, Bifidobacterium longum; settings: Bifidobacterium longum, anaerobic, read-out: minimum inhibitory concentration (MIC)
# E. faecium = experiment: MIC against human gut microbiota; assay type: cell-based, Enterococcus faecium; settings: Enterococcus faecium; E. faecium HM-202, TSB, aerobic; read-out: minimum inhibitory concentration (MIC)
# E. fecalis = experiment: MIC against human gut microbiota; assay type: cell-based, Enterococcus faecalis; settings: Enterococcus faecalis; E. fecalis HM-970, TSB, aerobic; read-out: minimum inhibitory concentration (MIC)
# L. casei = experiment: MIC against human gut microbiota; assay type: cell-based; settings: Lacticaseibacillus casei, ATCC334; L. casei ATCC 334, MRS broth, 5% CO2; read-out: minimum inhibitory concentration (MIC)
# L. brevis = experiment: MIC against human gut microbiota; assay type: cell-based, Lactobacillus brevis; settings: Levilactobacillus brevis, ATCC14864; L. brevis ATCC-14864, MRS broth, 5% CO2; read-out: minimum inhibitory concentration (MIC)
# L. rhamanosus = experiment: MIC against human gut microbiota; assay type: cell-based, Lactobacillus rhamnoosus; settings: Lactobacillus, ATCC53103; L. rhamanosus ATCC-53103, MRS broth, 5% CO2; read-out: minimum inhibitory concentration (MIC)
# enterococcal species = experiment: MIC against human gut microbiota, summary in text; assay type: cell-based; settings: summary over the Enterococcus strains of Table 4
# [2] = system: vancomycin-resistant enterococci (VRE); parameters: method as in PMID 26765953; settings: cited from earlier work
# MRSA = system: MRSA; parameters: method as in PMID 26765953; settings: cited from earlier work
# A. baumannii = system: A. baumannii; parameters: method as in PMID 31105656; settings: cited from earlier work
# [3] = system: Acinetobacter calcoaceticus; parameters: method as in PMID 31105656; settings: cited from earlier work
# [4] = system: C. difficile ATCC BAA-1870; experiment: MIC of active hits by broth microdilution; settings: C. difficile ATCC BAA-1870, 48 h anaerobic; for MIC: Clostridioides difficile, ATCCBAA1870, 48 h
# [5] = system: C. difficile ATCC BAA-1870; experiment: Time-kill assay at 5 × MIC; settings: C. difficile ATCC BAA-1870, ~10^6 CFU/mL, up to 24 h
# [6] = ATCC43255, C. difficile ATCC 43255
# [7] = ATCCBAA1870, C. difficile ATCC BAA-1870 (Ribotype-027), purchased compounds, panel test
# [8] = C. difficile CD-1 (Ribotype-027)
# [9] = C. difficile CD-6 (Ribotype-027)
# [10] = C. difficile CD-10(Ribotype-027)
# [11] = C. difficile CD-26 (Ribotype-027)
# [12] = C. difficile CD-29 (Ribotype-027)
# [13] = B. fragilis HM- 709, BHIS broth
# [14] = B. fragilis HM- 718, BHIS broth
# [15] = Bif. longum HM- 845, BHIS broth
# [16] = Bif. longum HM- 846, BHIS broth
# [17] = Bif. longum HM- 847, BHIS broth
# [18] = Bif. longum HM- 848, BHIS broth
structure (smiles),measurement,setting,value
N=C(N/N=C/c1ccc(Cl)cc1)N/N=C/c1ccc(Cl)cc1 [Robenidine hydrochloride],MIC50,[1]; 48 h,1 µg/mL
same,MIC,"[1]; ATCC630, C. difficile ATCC 630",1 µg/mL
same,MIC,[1]; [6],1 µg/mL
same,MIC,[1]; [7],2 µg/mL
same,MIC,[1]; [8],1 µg/mL
same,MIC,[1]; [9],1 µg/mL
same,MIC,[1]; [10],1 µg/mL
same,MIC,[1]; C. difficile CD-12,1 µg/mL
same,MIC,[1]; C. difficile CD-13,2 µg/mL
same,MIC,[1]; C. difficile CD-15,2 µg/mL
same,MIC,[1]; C. difficile CD-22,2 µg/mL
same,MIC,[1]; C. difficile CD-23,1 µg/mL
same,MIC,[1]; C. difficile CD-24,1 µg/mL
same,MIC,[1]; [11],1 µg/mL
same,MIC,[1]; C. difficile CD-28,1 µg/mL
same,MIC,[1]; [12],1 µg/mL
same,MIC,[1]; C. difficile CD-30,2 µg/mL
same,MIC,[1]; C. difficile NR-49302,1 µg/mL
same,MIC,[1]; C. difficile NR-49304,1 µg/mL
same,MIC,[1]; C. difficile NR-49308,1 µg/mL
same,MIC,[1]; C. difficile NR-49319,1 µg/mL
same,MIC50,[1],1 µg/mL
same,MIC90,[1],2 µg/mL
same,MIC,B. fragilis; [13],≤ 2 µg/mL
same,MIC,B. fragilis; [14],≤ 2 µg/mL
same,MIC,B. dorei,≤ 2 µg/mL
same,MIC,Bif. breve,≤ 2 µg/mL
same,MIC,Bif. angulatum,≤ 2 µg/mL
same,MIC,Bif. adolescentis,≤ 2 µg/mL
same,MIC,Bif. longum; [15],≤ 2 µg/mL
same,MIC,Bif. longum; [16],≤ 2 µg/mL
same,MIC,Bif. longum; [17],≤ 2 µg/mL
same,MIC,Bif. longum; [18],≤ 2 µg/mL
same,MIC,E. faecium,≤ 2 µg/mL
same,MIC,E. fecalis,≤ 2 µg/mL
same,MIC,L. casei,16 µg/mL
same,MIC,L. brevis,8 µg/mL
same,MIC,L. rhamanosus,16 µg/mL
same,MIC,enterococcal species,≤ 2 µg/mL
same,MIC,[2],4.7 µM
same,MIC,MRSA,8.1 µM
same,MIC,A. baumannii,8 µg/mL
same,MIC,[3],2 µg/mL
same,MIC (μM),[4],8 µM
same,MIC,[4],2.97 µg/mL
CCc1c(Cl)c(O)c(Cl)c(O)c1C(=O)O[C@H]1[C@H](O)[C@H](OC)[C@H](OC/C2=C\C=C\C[C@H](O)/C(C)=C/[C@H](CC)[C@@H](O[C@@H]3OC(C)(C)[C@@H](OC(=O)C(C)C)[C@H](O)[C@@H]3O)/C(C)=C/C(C)=C/C[C@@H]([C@@H](C)O)OC2=O)O[C@@H]1C [Fidaxomicin],MIC50,[1]; 48 h,0.015 µg/mL
same,MIC,"[1]; ATCC630, C. difficile ATCC 630",≤ 0.0078 µg/mL
same,MIC,[1]; [6],0.03 µg/mL
same,MIC,[1]; [7],≤ 0.0078 µg/mL
same,MIC,[1]; [8],0.06 µg/mL
same,MIC,[1]; [9],0.06 µg/mL
same,MIC,[1]; [10],0.03 µg/mL
same,MIC,[1]; C. difficile CD-12,0.03 µg/mL
same,MIC,[1]; C. difficile CD-13,≤ 0.0078 µg/mL
same,MIC,[1]; C. difficile CD-15,0.015 µg/mL
same,MIC,[1]; C. difficile CD-22,≤ 0.0078 µg/mL
same,MIC,[1]; C. difficile CD-23,0.06 µg/mL
same,MIC,[1]; C. difficile CD-24,≤ 0.0078 µg/mL
same,MIC,[1]; [11],0.06 µg/mL
same,MIC,[1]; C. difficile CD-28,0.015 µg/mL
same,MIC,[1]; [12],≤ 0.0078 µg/mL
same,MIC,[1]; C. difficile CD-30,0.015 µg/mL
same,MIC,[1]; C. difficile NR-49302,0.03 µg/mL
same,MIC,[1]; C. difficile NR-49304,≤ 0.0078 µg/mL
same,MIC,[1]; C. difficile NR-49308,≤ 0.0078 µg/mL
same,MIC,[1]; C. difficile NR-49319,0.03 µg/mL
same,MIC50,[1],0.015 µg/mL
same,MIC90,[1],0.06 µg/mL
same,MIC,B. fragilis; [13],> 256 µg/mL
same,MIC,B. fragilis; [14],> 256 µg/mL
same,MIC,B. dorei,> 256 µg/mL
same,MIC,Bif. breve,≤ 2 µg/mL
same,MIC,Bif. angulatum,≤ 2 µg/mL
same,MIC,Bif. adolescentis,≤ 2 µg/mL
same,MIC,Bif. longum; [15],≤ 2 µg/mL
same,MIC,Bif. longum; [16],≤ 2 µg/mL
same,MIC,Bif. longum; [17],≤ 2 µg/mL
same,MIC,Bif. longum; [18],≤ 2 µg/mL
same,MIC,E. faecium,≤ 2 µg/mL
same,MIC,E. fecalis,≤ 2 µg/mL
same,MIC,L. casei,8 µg/mL
same,MIC,L. brevis,64 µg/mL
same,MIC,L. rhamanosus,8 µg/mL
same,time to eliminate / clear C. difficile,[5],≤ 24 h
same,MIC,[4],≤ 0.0078 µg/mL
